Test systems include ACHN renal; KM12 colon; LOX IMVI melanoma; MOLT-4 leukemia; SNB-19 CNS; TK-10 renal; UACC-257 melanoma; UACC-62 melanoma; DU-145 prostate; SR leukemia.
Common to all, as to assay: NCI anticancer screen, dose series, 48 h

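The compound was tested at five concentrations on cells cultured in 96-well plates, with a 48-hour exposure period. GI50 marks 50% less growth. TGI: total growth inhibition.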

As to `N#CC(/C(=N/NC(=O)C(=O)NN)C(=O)Nc1nc([N+](=O)[O-])cs1)c1ccc(Cl)cc1` (configuration not stated), the TGI in the test on ACHN renal, with KM12 colon, in the test on LOX IMVI melanoma, with MOLT-4 leukemia, in the test on SNB-19 CNS and in the test with TK-10 renal was greater than 100 µM throughout. The TGI in the test with UACC-257 melanoma and in the test on UACC-62 melanoma was greater than 100 µM in each case.

Take `CCC1C(=O)OCc2c1cc1n(c2=O)Cc2cc3ccccc3nc2-1` (configuration not stated): the TGI in the test on ACHN renal was greater than 100 µM; in the test on DU-145 prostate, greater than 30.9 µM; in the test on KM12 colon, greater than 100 µM; with LOX IMVI melanoma, greater than 51.2 µM; in the test on MOLT-4 leukemia, greater than 22 µM; in the test with SNB-19 CNS, greater than 100 µM. The TGI with TK-10 renal is greater than 100 µM; with UACC-257 melanoma it was greater than 100 µM; in the test on UACC-62 melanoma, greater than 37.6 µM.

Regarding `COc1cc(C(=O)N2N=C(c3ccc(S(C)(=O)=O)cc3)CC2c2ccco2)cc(OC)c1OC` (configuration not stated), the GI50 is 5.76 µM in the test with ACHN renal; 7.04 µM in the test with DU-145 prostate; 3.51 µM with KM12 colon; 5.85 µM with LOX IMVI melanoma; 3.08 µM in the test on MOLT-4 leukemia; 5.92 µM in the test with SNB-19 CNS. Moreover, the GI50 in the test on TK-10 renal is 29 µM; with UACC-257 melanoma, greater than 100 µM; in the test on UACC-62 melanoma, 3.82 µM. Also, the TGI in the test with ACHN renal was greater than 100 µM; with DU-145 prostate, greater than 78.1 µM; in the test with KM12 colon it was greater than 100 µM; with LOX IMVI melanoma, greater than 100 µM; in the test with MOLT-4 leukemia, greater than 100 µM; with SNB-19 CNS, greater than 100 µM. Further, the TGI with TK-10 renal, with UACC-257 melanoma and in the test on UACC-62 melanoma was greater than 100 µM each time.

`CC(=O)Oc1cc(C)c2c(c1OC(C)=O)CC1(O2)[C@@H](C)CCC2[C@@]3(C)CC[C@H](OC(C)=O)C(C)(C)C3CC[C@]21C` (some centres not stated): the TGI in the test with ACHN renal amounted to 7.63 µM; with KM12 colon, 18.2 µM; with LOX IMVI melanoma, 14 µM; with MOLT-4 leukemia it was 42.2 µM; with SNB-19 CNS it was 29.8 µM; in the test with SR leukemia it was 11.3 µM. Further, the TGI in the test on TK-10 renal came out at 11.1 µM; in the test on UACC-257 melanoma, 21.8 µM; with UACC-62 melanoma, 5.26 µM.

For `CC(=O)CCc1ccc(OC2OC(COC(=O)c3cc(O)c(O)c(O)c3)C(O)C(O)C2OC(=O)/C=C/c2ccccc2)cc1` (configuration not stated), the GI50 in the test with ACHN renal was 25.6 µM; in the test with DU-145 prostate it was 23.5 µM; in the test with KM12 colon, 21 µM; with LOX IMVI melanoma it was 17.1 µM; in the test on MOLT-4 leukemia, 17.2 µM; in the test on SNB-19 CNS it was 18.4 µM. For the same compound, the GI50 with TK-10 renal was 23.8 µM; in the test on UACC-62 melanoma, 18.4 µM. Also, the TGI stood at 75.4 µM in the test on ACHN renal; 42.8 µM in the test on DU-145 prostate; 43.5 µM in the test with KM12 colon; 41.4 µM in the test on LOX IMVI melanoma; 48.7 µM in the test on MOLT-4 leukemia; 49.7 µM in the test on SNB-19 CNS. The TGI in the test on TK-10 renal amounted to 61.3 µM; with UACC-62 melanoma it was 32.6 µM.

`COC(c1cccc(C(O)(C(F)(F)F)C(F)(F)F)c1)(C(F)(F)F)C(F)(F)F`: the TGI in the test on ACHN renal is 29.2 µM; in the test with KM12 colon, 33.9 µM; in the test on LOX IMVI melanoma, 34.1 µM; in the test on MOLT-4 leukemia it was 40.5 µM; in the test on SNB-19 CNS, 34.5 µM; in the test with SR leukemia it was 51.4 µM. Further, the TGI with TK-10 renal came to 36.6 µM; with UACC-257 melanoma, 42.3 µM; in the test on UACC-62 melanoma, 28.2 µM.

Take `CSc1cccc(-n2c3nc(=O)n(C)c(=O)c-3nc3ccccc32)c1`: the TGI worked out at 13.2 µM in the test with ACHN renal; 43.2 µM in the test on KM12 colon; 32.3 µM in the test with MOLT-4 leukemia; 65.9 µM with SNB-19 CNS; 40.9 µM in the test with TK-10 renal; 6.14 µM in the test with UACC-62 melanoma.

Regarding `CCCCCCCC(=O)NCC(O)CNC(=O)CCCCCCC`, the TGI in the test on KM12 colon, in the test on LOX IMVI melanoma, in the test with MOLT-4 leukemia, in the test on SNB-19 CNS, in the test on SR leukemia and in the test on TK-10 renal was greater than 100 µM each time. Besides, the TGI with UACC-257 melanoma and in the test with UACC-62 melanoma was greater than 100 µM each time.

With `COc1cc2c(cc1O)-c1c(cnn1-c1ccc([N+](=O)[O-])cc1)CCC2`, the TGI in the test on ACHN renal is 14.6 µM; in the test on DU-145 prostate it was greater than 100 µM; in the test with KM12 colon, 31.7 µM; in the test on LOX IMVI melanoma, 26.5 µM; in the test with MOLT-4 leukemia, 6.2 µM; in the test with SNB-19 CNS it was greater than 100 µM. Also, the TGI in the test with TK-10 renal stood at 32.6 µM; in the test with UACC-257 melanoma, 52 µM; with UACC-62 melanoma, 8.42 µM.

Turning to `C#CCN(Cc1nc2cc(C(F)(F)F)ccc2nc1-c1ccccc1)c1ccc(OC(F)(F)F)cc1`, the GI50 in the test on ACHN renal is 50.2 µM; in the test on DU-145 prostate it was 36.5 µM; with KM12 colon, 29.1 µM; in the test with LOX IMVI melanoma, 37 µM; in the test on MOLT-4 leukemia, 32.2 µM; in the test on SNB-19 CNS, greater than 100 µM. Besides, the results for the GI50 in the test on TK-10 renal, in the test on UACC-257 melanoma and in the test with UACC-62 melanoma were 78.9 µM, greater than 100 µM and 48.6 µM, respectively. The TGI with ACHN renal is greater than 100 µM; in the test with DU-145 prostate, greater than 100 µM; in the test on KM12 colon it was 78.8 µM; with LOX IMVI melanoma, 96.1 µM; in the test with MOLT-4 leukemia, greater than 100 µM; with SNB-19 CNS it was greater than 100 µM. In addition, the TGI in the test with TK-10 renal, in the test with UACC-257 melanoma and in the test with UACC-62 melanoma was greater than 100 µM in each case.

Take `C/C=C/C1=C(Cl)C(=O)[C@@H](Cl)[C@@]1(O)C(=O)OC`: the TGI in the test on ACHN renal was determined as 6.59 µM; in the test on KM12 colon it was 22.2 µM; with LOX IMVI melanoma, 6.37 µM; with MOLT-4 leukemia, 12.9 µM; in the test on SNB-19 CNS, 19.9 µM; in the test with SR leukemia, 21.7 µM. Moreover, the figures for the TGI with TK-10 renal, in the test with UACC-257 melanoma and in the test with UACC-62 melanoma were 9.14 µM, 3.5 µM and 4.18 µM, respectively.

As to `O=c1cc(-c2ccccc2)oc2cc(O)c(O)c(O)c12`, the GI50 in the test on ACHN renal was 9.32 µM; with DU-145 prostate, 25.1 µM; in the test with KM12 colon, 18.2 µM; with LOX IMVI melanoma, 28 µM; in the test with MOLT-4 leukemia it was 53.7 µM; in the test on SNB-19 CNS, 30 µM. The GI50 with TK-10 renal was 28 µM; in the test with UACC-257 melanoma, 39 µM; in the test on UACC-62 melanoma, 9.39 µM. Further, the TGI with ACHN renal is greater than 100 µM; in the test with DU-145 prostate it was greater than 100 µM; in the test on KM12 colon, 62.5 µM; in the test on LOX IMVI melanoma it was greater than 100 µM; in the test on MOLT-4 leukemia, greater than 100 µM; in the test with SNB-19 CNS it was greater than 100 µM. In addition, the TGI was 81.2 µM with TK-10 renal, greater than 100 µM with UACC-257 melanoma and 31.9 µM in the test on UACC-62 melanoma.

Values taken from PubChem BioAssay (NCI).
